Test results reported in US11207360B2, “Composition for the treatment of dysbiosis of the intestinal microbiota” (NUTRAVIS S.R.L., priority 2017, dated 2021).

Assays:
Format in all cases: cell-based
Settings in all cases: liposomes containing 1 mg beta-carotene, 24 hours at 37° C.
Bacillus coagulans = test: Abscisic acid (ABA) production by Bacillus coagulans culture incubated with carotenoid liposomes, ABA ELISA
Description: Lyophilized probiotics were grown separately in LB medium in shake-flasks equipped with vented cap at 37° C. for 24 hours. After growth, each probiotic suspension was diluted with LB medium to reach approximately 0.1 O.D. at 600 nm. 3.5 ml of each diluted suspension was added with 500 μl of: i) empty liposomes, […] iii) liposomes containing 0.1 mg xanthophyll, iv) both liposomes containing carotene and xanthophyll, and incubated with shaking at 350 rpm at 37° C. for 24 hours. At the end of the incubation, each probiotic suspension was pelleted by centrifugation at 3000×g for 10 minutes. Supernatant was recovered, added with 4 vol of methanol and stored at −20° C. for 24 hours. Pellet was washed once with saline buffer, centrifuged at 3000×g for 10 minutes, resuspended in 2 ml of methanol, sonicated in ice and stored at −20° C. for 24 hours. 4 mg of carotene and 0.4 mg of xanthophyll were dissolved each in 200 μl of chloroform by vortexing. For each liposome preparation 200 mg of lecithin were dissolved in 500 μl of chloroform. Both carotene and xanthophyll chloroform solutions were added, separately, to the chloroform lecithin solution, vortexed, and completely dried with N2 to create a thin layer on the inner wall of a glass Corex. […] Quantification of abscisic acid (ABA) was performed on both pellets and supernatants obtained as described above (see Bacterial cell culture). […]

[1] = test system: Bacillus coagulans, Lactobacillus Plantarum; test: Abscisic acid production by culture of Bacillus coagulans and Lactobacillus Plantarum incubated with liposomes, ABA ELISA
Description: (§1) Lyophilized probiotics were grown separately in LB medium in shake-flasks equipped with vented cap at 37° C. for 24 hours. After growth, each probiotic suspension was diluted with LB medium to reach approximately 0.1 O.D. at 600 nm. 3.5 ml of each diluted suspension was added with 500 μl of:
(§2) ii) liposomes containing 1 mg carotene,
(§3) iii) liposomes containing 0.1 mg xanthophyll,
(§4) iv) both liposomes containing carotene and xanthophyll, and
(§5) incubated with shaking at 350 rpm at 37° C. for 24 hours.
(§6) At the end of the incubation, each probiotic suspension was pelleted by centrifugation at 3000×g for 10 minutes. Supernatant was recovered, added with 4 vol of methanol and stored at −20° C. for 24 hours. Pellet was washed once with saline buffer, centrifuged at 3000×g for 10 minutes, resuspended in 2 ml of methanol, sonicated in ice and stored at −20° C. for 24 hours.
(§7) 4 mg of carotene and 0.4 mg of xanthophyll were dissolved each in 200 μl of chloroform by vortexing. For each liposome preparation 200 mg of lecithin were dissolved in 500 μl of chloroform. Both carotene and xanthophyll chloroform solutions were added, separately, to the chloroform lecithin solution, vortexed, and completely dried with N2 to create a thin layer on the inner wall of a glass Corex. […]
(§8) Quantification of abscisic acid (ABA) was performed on both pellets and supernatants obtained as described above (see Bacterial cell culture). […]

Lactobacillus Rhamnosus = test: Abscisic acid production by Lactobacillus Rhamnosus culture incubated with liposomes, ABA ELISA
Description: as §1, §2, §3, §4, §5, §6, §7, §8

CC1=C(/C=C/C(C)=C/C=C/C(C)=C/C=C/C=C(C)/C=C/C=C(C)/C=C/C2=C(C)CCCC2(C)C)C(C)(C)CCC1 [beta-carotene]
production of abscisic acid, times higher than culture with empty liposomes (FIG. 2) (Bacillus coagulans): about 5 times | production of abscisic acid, times higher than culture with empty liposomes (FIG. 1A) (Bacillus coagulans; p=0.0093): about 6.6 times | production of abscisic acid, times higher than culture with empty liposomes (FIG. 1B) [1]: about 7.5 times | production of abscisic acid, times higher than culture with empty liposomes (FIG. 1C) (Lactobacillus Rhamnosus): about 20 times
